Reference: patent publication US11993599B2, “Therapeutic compounds” (Genentech, Inc., priority 2021, dated 2024)

Assays:
[1] = biological target: BRM (Homo sapiens, UniProt P51531); experiment: Immunofluorescence assay for BRM degradation in SW1573 cells; format: cell-based; set-up: treated overnight at 4° C. with either BRM primary antibody (Cell signaling Cat #11966) or BRG primary antibody; endogenous in cells; host or cells: SW1573; conditions: 20 hours incubation; for DC50: immunofluorescence mean nuclear signal, read-out: BRM IF Degradation IC50; for BRM IF Degradation Sinf (%): normalized to a known degrader control
In short: (§1)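 Degradation measured as loss of nuclear BRM or BRG1 staining in SW1573 cells after 20 h compound exposure. Signal per cell was imaged and normalized to a known degrader; curves with floating maximum yielded IC50 and Dmax.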

[2] = biological target: T1, BRG1 (Homo sapiens, UniProt P51532); experiment: Immunofluorescence assay for BRG1 degradation in SW1573 cells; format: cell-based; conditions: 20 hours incubation; for DC50: immunofluorescence mean nuclear signal, read-out: BRG1 IF Degradation IC50; for Dmax: SW1573, 20 h, normalized to a known degrader control, read-out: BRG1 IF Degradation Sinf (%)
T1 construct: either BRM primary antibody (Cell signaling Cat #11966) or BRG primary antibody (Abcam, ab 110641); endogenous in cells; host or cells: SW1573
In short: as §1

BRM, sequence (P51531 whole entry): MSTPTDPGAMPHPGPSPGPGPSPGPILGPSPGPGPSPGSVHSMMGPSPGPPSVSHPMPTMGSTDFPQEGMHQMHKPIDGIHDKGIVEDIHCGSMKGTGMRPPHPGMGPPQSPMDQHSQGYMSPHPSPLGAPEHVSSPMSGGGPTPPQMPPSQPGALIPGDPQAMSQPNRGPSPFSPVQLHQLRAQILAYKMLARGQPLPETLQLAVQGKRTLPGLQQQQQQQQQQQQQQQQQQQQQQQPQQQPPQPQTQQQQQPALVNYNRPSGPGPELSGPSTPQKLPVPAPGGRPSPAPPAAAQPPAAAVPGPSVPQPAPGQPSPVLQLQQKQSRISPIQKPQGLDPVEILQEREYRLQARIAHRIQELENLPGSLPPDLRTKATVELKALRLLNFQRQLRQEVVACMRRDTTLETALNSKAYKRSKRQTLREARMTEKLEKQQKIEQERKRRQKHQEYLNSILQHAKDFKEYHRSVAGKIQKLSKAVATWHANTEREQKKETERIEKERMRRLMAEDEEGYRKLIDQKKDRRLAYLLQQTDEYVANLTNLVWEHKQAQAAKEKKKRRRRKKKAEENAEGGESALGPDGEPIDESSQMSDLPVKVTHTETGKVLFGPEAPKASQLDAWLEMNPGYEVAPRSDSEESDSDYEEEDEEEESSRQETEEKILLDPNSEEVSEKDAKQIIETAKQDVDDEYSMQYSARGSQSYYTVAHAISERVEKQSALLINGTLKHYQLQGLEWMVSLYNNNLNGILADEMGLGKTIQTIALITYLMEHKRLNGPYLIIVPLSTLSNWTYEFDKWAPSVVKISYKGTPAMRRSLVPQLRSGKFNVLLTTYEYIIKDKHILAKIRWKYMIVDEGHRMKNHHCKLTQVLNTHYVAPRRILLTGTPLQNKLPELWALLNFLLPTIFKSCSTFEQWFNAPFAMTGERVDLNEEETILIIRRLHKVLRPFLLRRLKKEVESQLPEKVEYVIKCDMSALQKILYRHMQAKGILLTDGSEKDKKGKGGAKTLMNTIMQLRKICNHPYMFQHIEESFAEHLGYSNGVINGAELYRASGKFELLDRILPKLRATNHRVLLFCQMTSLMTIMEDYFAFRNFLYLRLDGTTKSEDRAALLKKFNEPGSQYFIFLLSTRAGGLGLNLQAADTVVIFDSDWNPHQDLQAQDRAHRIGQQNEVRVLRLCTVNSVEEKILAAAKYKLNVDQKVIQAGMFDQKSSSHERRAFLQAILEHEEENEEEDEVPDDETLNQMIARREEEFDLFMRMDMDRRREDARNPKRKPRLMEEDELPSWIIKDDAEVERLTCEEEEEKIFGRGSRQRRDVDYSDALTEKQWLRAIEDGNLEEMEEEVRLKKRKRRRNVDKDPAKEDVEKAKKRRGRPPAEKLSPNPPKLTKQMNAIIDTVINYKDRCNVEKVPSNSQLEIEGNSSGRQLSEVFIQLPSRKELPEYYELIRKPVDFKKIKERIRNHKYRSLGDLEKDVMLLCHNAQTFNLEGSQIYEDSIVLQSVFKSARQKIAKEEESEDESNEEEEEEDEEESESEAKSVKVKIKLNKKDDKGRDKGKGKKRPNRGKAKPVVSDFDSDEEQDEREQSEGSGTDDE
T1 sequence (P51532 whole entry): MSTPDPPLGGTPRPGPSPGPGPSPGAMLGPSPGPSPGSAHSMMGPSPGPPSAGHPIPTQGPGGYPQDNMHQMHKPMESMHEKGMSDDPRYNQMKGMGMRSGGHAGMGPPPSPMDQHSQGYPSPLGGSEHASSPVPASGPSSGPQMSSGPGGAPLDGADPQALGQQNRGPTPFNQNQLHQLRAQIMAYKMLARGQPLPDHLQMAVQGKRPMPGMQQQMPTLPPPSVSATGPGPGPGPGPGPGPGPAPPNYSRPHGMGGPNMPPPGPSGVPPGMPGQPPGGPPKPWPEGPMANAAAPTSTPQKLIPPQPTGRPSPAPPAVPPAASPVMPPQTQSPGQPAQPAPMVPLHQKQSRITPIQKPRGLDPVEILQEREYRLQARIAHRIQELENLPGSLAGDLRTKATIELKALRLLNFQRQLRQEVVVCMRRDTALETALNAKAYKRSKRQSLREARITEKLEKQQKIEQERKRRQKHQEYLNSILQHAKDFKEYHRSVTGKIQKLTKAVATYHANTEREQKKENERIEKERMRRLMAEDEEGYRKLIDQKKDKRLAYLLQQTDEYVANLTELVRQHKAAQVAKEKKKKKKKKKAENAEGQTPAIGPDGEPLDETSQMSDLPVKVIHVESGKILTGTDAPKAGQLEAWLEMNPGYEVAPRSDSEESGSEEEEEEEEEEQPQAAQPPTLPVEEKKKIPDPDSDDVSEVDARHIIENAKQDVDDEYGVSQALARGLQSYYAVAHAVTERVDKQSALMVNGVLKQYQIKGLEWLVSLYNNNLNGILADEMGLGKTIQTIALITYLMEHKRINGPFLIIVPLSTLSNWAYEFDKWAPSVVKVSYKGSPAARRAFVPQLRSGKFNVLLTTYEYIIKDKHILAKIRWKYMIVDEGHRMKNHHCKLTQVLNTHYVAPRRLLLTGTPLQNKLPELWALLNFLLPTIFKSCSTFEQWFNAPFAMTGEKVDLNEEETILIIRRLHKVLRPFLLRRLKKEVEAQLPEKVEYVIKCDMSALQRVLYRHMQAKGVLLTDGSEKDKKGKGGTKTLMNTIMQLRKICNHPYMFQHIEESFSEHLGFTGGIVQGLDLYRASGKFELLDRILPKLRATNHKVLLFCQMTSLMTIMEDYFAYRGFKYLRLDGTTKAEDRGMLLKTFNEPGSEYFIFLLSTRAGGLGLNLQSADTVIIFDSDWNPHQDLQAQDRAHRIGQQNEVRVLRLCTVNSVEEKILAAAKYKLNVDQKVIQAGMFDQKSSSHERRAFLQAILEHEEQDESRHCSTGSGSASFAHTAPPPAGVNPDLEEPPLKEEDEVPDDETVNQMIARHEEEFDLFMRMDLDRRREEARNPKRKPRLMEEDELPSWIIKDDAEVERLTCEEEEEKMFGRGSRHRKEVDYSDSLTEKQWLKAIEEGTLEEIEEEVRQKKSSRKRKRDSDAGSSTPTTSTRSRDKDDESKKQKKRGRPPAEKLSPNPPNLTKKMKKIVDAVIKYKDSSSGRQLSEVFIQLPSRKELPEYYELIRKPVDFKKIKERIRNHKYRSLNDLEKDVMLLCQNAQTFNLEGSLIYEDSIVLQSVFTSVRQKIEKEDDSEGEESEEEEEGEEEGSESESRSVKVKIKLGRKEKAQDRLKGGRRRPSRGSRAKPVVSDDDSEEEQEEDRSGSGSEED

Row | SMILES | DC50 [1] | BRM IF Degradation Sinf (%) [1] | DC50 [2] | Dmax [2]
1 | Nc1nnc(-c2ccccc2O)cc1N1CC2CCC(C1)N2c1ccnc(C#CCN2CC3CCCC2C3)c1 (stereo not drawn) [Compound 125, 2-[6-amino-5-[8-[2-[3-(6-azabicyclo[3.2.1]octan-6-yl)prop-1-ynyl]-4-pyridyl]-3,8-diazabicyclo[3.2.1]octan-3-yl]pyridazin-3-yl]phenol] | < 0.01 µM | E (E indicates −30%-−70%) | < 0.01 µM | 30 to 70%
2 | Nc1nnc(-c2ccccc2O)cc1N1CC2CCC(C1)N2c1ccnc(C#CCN2CCC(CO)CC2)c1 [Compound 45, 2-(6-amino-5-(8-(2-(3-(4-(hydroxymethyl)piperidin-1-yl)prop-1-yn-1-yl)pyridin-4-yl)-3,8-diazabicyclo[3.2.1]octan-3-yl)pyridazin-3-yl)phenol] | 0.01 to 0.1 µM | E (E indicates −30%-−70%) | 0.01 to 0.1 µM | 30 to 70%
3 | Nc1nnc(-c2ccccc2O)cc1N1CC2CCC(C1)N2c1ccnc(C#CCN2CCCC(O)C2)c1 (stereo not drawn) [Compound 50, 1-[3-[4-[3-[3-amino-6-(2-hydroxyphenyl)pyridazin-4-yl]-3,8-diazabicyclo[3.2.1]octan-8-yl]-2-pyridyl]prop-2-ynyl]piperidin-3-ol] | 0.01 to 0.1 µM | E (E indicates −30%-−70%) | > 0.1 µM | 30 to 70%
4 | Nc1nnc(-c2ccccc2O)cc1N1CC2CCC(C1)N2c1ccnc(C#CCN2CC3CCC3C2)c1 (stereo not drawn) [Compound 91, 2-[6-amino-5-[8-[2-[3-(3-azabicyclo[3.2.0]heptan-3-yl)prop-1-ynyl]-4-pyridyl]-3,8-diazabicyclo[3.2.1]octan-3-yl]pyridazin-3-yl]phenol] | < 0.01 µM | E (E indicates −30%-−70%) | < 0.01 µM | 30 to 70%
5 | Nc1nnc(-c2ccccc2O)cc1N1CC2CCC(C1)N2c1ccnc(C#CCN2CC(F)C2)c1 [Compound 228, 2-[6-amino-5-[8-[2-[3-(3-fluoroazetidin-1-yl)prop-1-ynyl]-4-pyridyl]-3,8-diazabicyclo[3.2.1]octan-3-yl]pyridazin-3-yl]phenol] | < 0.01 µM | E (E indicates −30%-−70%) | < 0.01 µM | 0 to 30%
6 | Nc1nnc(-c2ccccc2O)cc1N1CC2CCC(C1)N2c1ccnc(C#CCN2CC3(CCOCC3)C2)c1 [Compound 49, 2-[6-amino-5-[8-[2-[3-(7-oxa-2-azaspiro[3.5]nonan-2-yl)prop-1-ynyl]-4-pyridyl]-3,8-diazabicyclo[3.2.1]octan-3-yl]pyridazin-3-yl]phenol] | < 0.01 µM | F (F indicates −71%-−120%) | < 0.01 µM | 30 to 70%
7 | Nc1nnc(-c2ccccc2O)cc1N1CC2CCC(C1)N2c1ccnc(C#CCN2CCCCC(O)(CF)C2)c1 (stereo not drawn) [Compound 241, 1-[3-[4-[3-[3-amino-6-(2-hydroxyphenyl)pyridazin-4-yl]-3,8-diazabicyclo[3.2.1]octan-8-yl]-2-pyridyl]prop-2-ynyl]-3-(fluoromethyl)azepan-3-ol] | 0.01 to 0.1 µM | E (E indicates −30%-−70%) | < 0.01 µM | 0 to 30%
8 | Nc1nnc(-c2ccccc2O)cc1N1CC2CCC(C1)N2c1ccnc(C#CCN2CC3CC2C3)c1 [Compound 86, 2-[6-amino-5-[8-[2-[3-(2-azabicyclo[2.1.1]hexan-2-yl)prop-1-ynyl]-4-pyridyl]-3,8-diazabicyclo[3.2.1]octan-3-yl]pyridazin-3-yl]phenol] | < 0.01 µM | E (E indicates −30%-−70%) | < 0.01 µM | 30 to 70%
9 | Nc1nnc(-c2ccccc2O)cc1N1CC2CCC(C1)N2c1ccnc(C#CCN2CC3CCCCC3C2)c1 (stereo not drawn) [Compound 39, 2-[5-[8-[2-[3-(1,3,3a,4,5,6,7,7a-octahydroisoindol-2-yl)prop-1-ynyl]-4-pyridyl]-3,8-diazabicyclo[3.2.1]octan-3-yl]-6-amino-pyridazin-3-yl]phenol] | < 0.01 µM | F (F indicates −71%-−120%) | < 0.01 µM | 30 to 70%
10 | Nc1nnc(-c2ccccc2O)cc1N1CC2CCC(C1)N2c1ccnc(C#CCN2CCC3CCC2CC3)c1 [Compound 218, 2-[6-amino-5-[8-[2-[3-(2-azabicyclo[3.2.2]nonan-2-yl)prop-1-ynyl]-4-pyridyl]-3,8-diazabicyclo[3.2.1]octan-3-yl]pyridazin-3-yl]henol] | < 0.01 µM | F (F indicates −71%-−120%) | < 0.01 µM | 30 to 70%
11 | Nc1nnc(-c2ccccc2O)cc1N1CC2CCC(C1)N2c1ccnc(C#CCN2CCC3CC[C@@H](O)C32)c1 (stereo partly drawn) [Compound 78, (6R)-1-[3-[4-[3-[3-amino-6-(2-hydroxyphenyl)pyridazin-4-yl]-3,8-diazabicyclo[3.2.1]octan-8-yl]-2-pyridyl]prop-2-ynyl]-3,3a,4,5,6,6a-hexahydro-2H-cyclopenta[b]pyrrol-6-ol] | < 0.01 µM | E (E indicates −30%-−70%) | > 0.1 µM | 
12 | Nc1nnc(-c2ccccc2O)cc1N1CC2CCC(C1)N2c1ccnc(C#CCN2CCn3cccc3C2)c1 [Compound 107, 2-[6-amino-5-[8-[2-[3-(3,4-dihydro-1H-pyrrolo[l,2-a]pyrazin-2-yl)prop-1-ynyl]-4-pyridyl]-3,8-diazabicyclo[3.2.1]octan-3-yl]pyridazin-3-yl]phenol] | 0.01 to 0.1 µM | E (E indicates −30%-−70%) | 0.01 to 0.1 µM | 0 to 30%
13 | CC1CCCN(CC#Cc2cc(N3C4CCC3CN(c3cc(-c5ccccc5O)nnc3N)C4)ccn2)CC1 (stereo not drawn) [Compound 200, 2-[6-amino-5-[8-[2-[3-(4-methylazepan-1-yl)prop-1-ynyl]-4-pyridyl]-3,8-diazabicyclo[3.2.1]octan-3-yl]pyridazin-3-yl]phenol] | < 0.01 µM | F (F indicates −71%-−120%) | < 0.01 µM | 71 to 120%
14 | CC[C@H]1COCCN1CC#Cc1cc(N2C3CCC2CN(c2cc(-c4ccccc4O)nnc2N)C3)ccn1 [Compound 64, 2-[6-amino-5-[8-[2-[3-[(3S)-3-ethylmorpholin-4-yl]prop-1-ynyl]-4-pyridyl]-3,8-diazabicyclo[3.2.1]octan-3-yl]pyridazin-3-yl]phenol] | 0.01 to 0.1 µM | E (E indicates −30%-−70%) | 0.01 to 0.1 µM | 0 to 30%
15 | CNC(=O)[C@@H]1CCCN1CC#Cc1cc(N2C3CCC2CN(c2cc(-c4ccccc4O)nnc2N)C3)ccn1 [Compound 163, (2S)-1-[3-[4-[3-[3-amino-6-(2-hydroxyphenyl)pyridazin-4-yl]-3,8-diazabicyclo[3.2.1]octan-8-yl]-2-pyridyl]prop-2-ynyl]-N-methyl-pyrrolidine-2-carboxamide] | 0.01 to 0.1 µM | E (E indicates −30%-−70%) | > 0.1 µM | 30 to 70%
16 | Nc1nnc(-c2ccccc2O)cc1N1CC2CCC(C1)N2c1ccnc(C#CCN2CCCCC2)c1 [Compound 166, 2-(6-amino-5-(8-(2-(3-(piperidin-1-yl)prop-1-yn-1-yl)pyridin-4-yl)-3,8-diazabicyclo[3.2.1]octan-3-yl)pyridazin-3-yl)phenol] | < 0.01 µM | E (E indicates −30%-−70%) | > 0.1 µM | 
17 | Nc1nnc(-c2ccccc2O)cc1N1CC2CCC(C1)N2c1ccnc(C#CCN2CC3(CCCC3)C2)c1 [Compound 155, 2-[6-amino-5-[8-[2-[3-(2-azaspiro[3.4]octan-2-yl)prop-1-ynyl]-4-pyridyl]-3,8-diazabicyclo[3.2.1]octan-3-yl]pyridazin-3-yl]phenol] | < 0.01 µM | E (E indicates −30%-−70%) | < 0.01 µM | 30 to 70%
18 | CC1(C)CC(O)C(O)CN(CC#Cc2cc(N3C4CCC3CN(c3cc(-c5ccccc5O)nnc3N)C4)ccn2)C1 (stereo not drawn) [Compound 210, 1-[3-[4-[3-[3-amino-6-(2-hydroxyphenyl)pyridazin-4-yl]-3,8-diazabicyclo[3.2.1]octan-8-yl]-2-pyridyl]prop-2-ynyl]-6,6-dimethyl-azepane-3,4-diol] | > 0.1 µM | E (E indicates −30%-−70%) | > 0.1 µM | 
19 | Nc1nnc(-c2ccccc2O)cc1N1CC2CCC(C1)N2c1ccnc(C#CCN2CC3CNCC3C2)c1 (stereo not drawn) [Compound 54, 2-[5-[8-[2-[3-(2,3,3a,4,6,6a-hexahydro-1H-pyrrolo[3,4-c]pyrrol-5-yl)prop-1-ynyl]-4-pyridyl]-3,8-diazabicyclo[3.2.1]octan-3-yl]-6-amino-pyridazin-3-yl]phenol] | > 0.1 µM | F (F indicates −71%-−120%) | > 0.1 µM | 30 to 70%
20 | Nc1nnc(-c2ccccc2O)cc1N1CC2CCC(C1)N2c1ccnc(C#CCN2CC3COCC(C2)C3O)c1 (stereo not drawn) [Compound 83, 7-[3-[4-[3-[3-amino-6-(2-hydroxyphenyl)pyridazin-4-yl]-3,8-diazabicyclo[3.2.1]octan-8-yl]-2-pyridyl]prop-2-ynyl]-3-oxa-7-azabicyclo[3.3.1]nonan-9-ol] | > 0.1 µM | E (E indicates −30%-−70%) | 0.01 to 0.1 µM | 30 to 70%
21 | CC1(F)CN(CC#Cc2cc(N3C4CCC3CN(c3cc(-c5ccccc5O)nnc3N)C4)ccn2)C1 [Compound 173, 2-[6-amino-5-[8-[2-[3-(3-fluoro-3-methyl-azetidin-1-yl)prop-1-ynyl]-4-pyridyl]-3,8-diazabicyclo[3.2.1]octan-3-yl]pyridazin-3-yl]phenol] | 0.01 to 0.1 µM | F (F indicates −71%-−120%) | 0.01 to 0.1 µM | 30 to 70%
